Test results from ChEMBL document CHEMBL1201862, “PubChem BioAssay data set” (2004).
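In this assay, cells in 96-well plates receive the compound at five concentrations for 48 hours. Endpoints are linearly interpolated between the surrounding concentrations. GI50 marks 50% less growth.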 Calls of active or inactive are those of the source. Cut-off read from the data, not from the text of the source: active = GI50 up to about 1.1 µM and inactive = higher.

Experiments:
Assay in all cases: DTP human tumour cell line panel, 48 h
HOP-92 = tested on: HOP-92
SK-MEL-28 = tested on: SK-MEL-28
OVCAR-5 = tested on: OVCAR-5
OVCAR-8 = tested on: OVCAR-8
COLO 205 = tested on: COLO 205
LOX IMVI = tested on: LOX IMVI
SR = tested on: SR
PC-3 = tested on: PC-3
IGROV-1 = tested on: IGROV-1
HOP-62 = tested on: HOP-62
HCT-116 = tested on: HCT-116
K562 = tested on: K562
ACHN = tested on: ACHN
BT-549 = tested on: BT-549
RXF 393 = tested on: RXF 393
NCI/ADR-RES = tested on: NCI/ADR-RES
NCI-H23 = tested on: NCI-H23
SK-MEL-2 = tested on: SK-MEL-2
SNB-75 = tested on: SNB-75
CCRF-CEM = tested on: CCRF-CEM

Compound | GI50 (HOP-92) | GI50 (SK-MEL-28) | GI50 (OVCAR-5) | GI50 (OVCAR-8) | GI50 (COLO 205) | GI50 (LOX IMVI) | GI50 (SR) | GI50 (PC-3) | GI50 (IGROV-1) | GI50 (HOP-62) | GI50 (HCT-116) | GI50 (K562) | GI50 (ACHN) | GI50 (BT-549) | GI50 (RXF 393) | GI50 (NCI/ADR-RES) | GI50 (NCI-H23) | GI50 (SK-MEL-2) | GI50 (SNB-75) | GI50 (CCRF-CEM)
COC1=C(C)C(=O)c2c(c(COC(N)=O)c3n2CC(OC(C)=O)C3OC(C)=O)C1=O (centres undefined) | 0.186 µM (active) | 0.311 µM (active) | 0.267 µM (active) | 0.0789 µM (active) | 0.116 µM (active) | 0.0294 µM (active) | < 0.01 µM (active) | 0.131 µM (active) | 0.0785 µM (active) | 0.126 µM (active) | 0.0204 µM (active) | 0.0191 µM (active) | < 0.01 µM (active) | 0.296 µM (active) | 0.152 µM (active) | 0.127 µM (active) | 0.0436 µM (active) | 0.191 µM (active) | 0.208 µM (active) | 0.153 µM (active)
COc1ccc(/C=C/C(=O)c2nc3ccccc3[nH]2)cc1 | 14 µM (inactive) | 24.5 µM (inactive) | 22 µM (inactive) | 21 µM (inactive) | 13.2 µM (inactive) | 9.91 µM (inactive) | 2.71 µM (inactive) | 21.8 µM (inactive) | 6.07 µM (inactive) | 25.4 µM (inactive) | 5.37 µM (inactive) | 4.88 µM (inactive) | 15.1 µM (inactive) | 22.5 µM (inactive) | 15.5 µM (inactive) | 18.2 µM (inactive) |  | 28.6 µM (inactive) | 19.8 µM (inactive) | > 100 µM (inactive)
O=C1CCN2C(=N1)Sc1ccccc12 | > 100 µM (inactive) | > 100 µM (inactive) | > 100 µM (inactive) | > 100 µM (inactive) | > 100 µM (inactive) | > 100 µM (inactive) | > 100 µM (inactive) | > 100 µM (inactive) | > 100 µM (inactive) | > 100 µM (inactive) | > 100 µM (inactive) | > 100 µM (inactive) | > 100 µM (inactive) | > 100 µM (inactive) | > 100 µM (inactive) | > 100 µM (inactive) | > 100 µM (inactive) | > 100 µM (inactive) | > 100 µM (inactive) | > 100 µM (inactive)
CN1C(=O)[C@H](c2c[nH]c3ccccc23)[C@H](c2c[nH]c3ccccc23)C1=O | > 35.9 µM (inactive) | 33.7 µM (inactive) | > 41.6 µM (inactive) | 31 µM (inactive) | 1.33 µM (inactive) | 17.7 µM (inactive) | 22.6 µM (inactive) | 24.3 µM (inactive) | 6.97 µM (inactive) | 27.7 µM (inactive) | 25.8 µM (inactive) | 28.9 µM (inactive) | 23.8 µM (inactive) | 19.1 µM (inactive) | 26.7 µM (inactive) | 27 µM (inactive) | 22.3 µM (inactive) | 22.3 µM (inactive) | 34.7 µM (inactive) | 18.6 µM (inactive)
CC(C)C(OC(=O)c1ccc(NCC2=CC(=O)C=CC2=O)cc1)C(C)C | 1.79 µM (inactive) | 4.05 µM (inactive) | 13.3 µM (inactive) | 3.03 µM (inactive) | 2.79 µM (inactive) | 5.15 µM (inactive) | 3.23 µM (inactive) | 8.09 µM (inactive) | 1.81 µM (inactive) | 18.3 µM (inactive) | 11.7 µM (inactive) | 3.66 µM (inactive) | 9.1 µM (inactive) | 3.52 µM (inactive) | 1.82 µM (inactive) | 4.3 µM (inactive) | 5.05 µM (inactive) | 11.6 µM (inactive) | 4.35 µM (inactive) | 0.474 µM (active)
CC[C@@H](/C=C\CCC(=O)C[C@H](O)CCC=C(C)C)O[Si](C(C)C)(C(C)C)C(C)C | 81.7 µM (inactive) | > 100 µM (inactive) | > 100 µM (inactive) | > 100 µM (inactive) | 71.6 µM (inactive) | 90.8 µM (inactive) | 39.4 µM (inactive) | 75.5 µM (inactive) | > 100 µM (inactive) | > 100 µM (inactive) | > 100 µM (inactive) | 54.5 µM (inactive) | > 100 µM (inactive) | > 100 µM (inactive) | 83.9 µM (inactive) | > 100 µM (inactive) | > 100 µM (inactive) | 42.9 µM (inactive) | > 100 µM (inactive) | 80.4 µM (inactive)
O=[N+]([O-])c1cc2oc(CSc3ccccc3)nc2cc1Cl | 26.6 µM (inactive) | 35.2 µM (inactive) | 31.3 µM (inactive) | 33.5 µM (inactive) | 21.7 µM (inactive) | 35.3 µM (inactive) | 33.3 µM (inactive) | 48 µM (inactive) | 33.9 µM (inactive) | 41.7 µM (inactive) | 29.4 µM (inactive) | 36.2 µM (inactive) | 59.7 µM (inactive) | 23.4 µM (inactive) | 26.4 µM (inactive) | 12.9 µM (inactive) | 26.7 µM (inactive) | 26 µM (inactive) | 26.1 µM (inactive) | 37.5 µM (inactive)
